Patent publication US20250353857A1, “COMPOUND ACTIVE AS INHIBITOR OF COLONY STIMULATION FACTOR-1 RECEPTOR (CSF-1 R)” (priority 2022, published 2025)

Experiments:
CSF1R = CSF1R (Homo sapiens (Human), UniProt P07333); experiment: CSF1R enzymatic inhibitory assay (Invitrogen Z'-LYTE, FRET); assay type: biochemical; conditions: Z'-LYTE assay, ATP concentration equal to Km, average of at least 2 titration curves; read-out: CSF1R (IC50);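 also: kinase phosphorylates a tyrosine on a coumarin/fluorescein FRET peptide, a protease cuts peptide left unphosphorylated, inhibition quantified from the donor-to-acceptor emission ratio with excitation at 400 nm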
[1] = tested on: P-MAPK (ERK1/2) in CSF-1 stimulated bone-marrow derived macrophages; experiment: Effect of CSF1R inhibitors on MAPK signaling in mouse bone-marrow derived macrophages; assay type: cell-based; conditions: fold change relative to PLX3397 (IC50 inhibitor/IC50 PLX3397), P-MAPK/total MAPK, 10 ng/mL CSF-1

Chain of CSF1R (P07333 20-972): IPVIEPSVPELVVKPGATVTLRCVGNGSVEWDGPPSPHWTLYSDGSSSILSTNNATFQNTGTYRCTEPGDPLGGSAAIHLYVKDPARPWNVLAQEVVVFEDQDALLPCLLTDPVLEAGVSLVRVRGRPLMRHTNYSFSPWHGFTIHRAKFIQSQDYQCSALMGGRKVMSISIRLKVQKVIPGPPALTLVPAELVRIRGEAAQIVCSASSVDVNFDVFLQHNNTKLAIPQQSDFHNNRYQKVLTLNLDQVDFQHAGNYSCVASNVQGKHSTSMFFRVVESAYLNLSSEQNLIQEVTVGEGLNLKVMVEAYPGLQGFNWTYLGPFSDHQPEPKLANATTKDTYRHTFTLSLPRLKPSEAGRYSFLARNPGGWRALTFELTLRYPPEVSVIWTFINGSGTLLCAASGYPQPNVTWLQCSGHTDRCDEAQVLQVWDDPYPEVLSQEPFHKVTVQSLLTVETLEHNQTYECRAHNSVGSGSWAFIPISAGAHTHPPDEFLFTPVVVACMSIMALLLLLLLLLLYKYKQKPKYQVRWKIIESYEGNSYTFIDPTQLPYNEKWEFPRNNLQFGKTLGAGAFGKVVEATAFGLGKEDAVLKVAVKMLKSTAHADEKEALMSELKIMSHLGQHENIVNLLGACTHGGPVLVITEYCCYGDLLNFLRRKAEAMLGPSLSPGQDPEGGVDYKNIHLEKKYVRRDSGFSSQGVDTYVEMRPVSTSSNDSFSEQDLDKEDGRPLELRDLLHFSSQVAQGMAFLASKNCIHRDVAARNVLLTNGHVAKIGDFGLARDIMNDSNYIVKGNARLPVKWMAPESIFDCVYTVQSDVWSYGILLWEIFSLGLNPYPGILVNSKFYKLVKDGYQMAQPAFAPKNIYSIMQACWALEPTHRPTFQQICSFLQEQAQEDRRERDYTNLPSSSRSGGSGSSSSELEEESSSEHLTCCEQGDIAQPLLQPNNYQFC

| Structure (SMILES) | IC50 (CSF1R) | MAPK (fold) [1] |
| --- | --- | --- |
| CN(Cc1cccnc1)c1ncnc2[nH]c(-c3ccc(CO)cc3)nc12 [TIA02-166, N-Methyl-N-(pyridin-3-ylmethyl)-8-(4-(hydroxymethyl)phenyl)-9H-purin-6-amine] | 2.1 ± 0.4 nM | >3 fold |
| OCc1ccc(-c2nc3c(N4CCCC4c4ccccc4)ncnc3[nH]2)cc1 (stereo not drawn) [TIA02-176, 8-(4-(Hydroxymethyl)phenyl)-6-(2-phenylpyrrolidin-1-yl)-9H-purine] | 1.9 ± 0.2 nM | >3 fold |
| CN(CC1CCCCC1)c1ncnc2[nH]c(-c3ccc(CO)cc3)nc12 [TIA03-024, N-Methyl-N-(cyclohexylmethyl)-8-(4-(hydroxymethyl)phenyl)-9H-purin-6-amine] | 0.7 nM | 0.9 fold |
| CN(CC1CCOCC1)c1ncnc2[nH]c(-c3ccc(CO)cc3)nc12 [TIA04-051, N-Methyl-N-(oxan-4-ylmethyl)-8-(4-(hydroxymethyl)phenyl)-9H-purin-6-amine] | 0.3 nM | 1 fold |
| CN1CCCC(CN(C)c2ncnc3[nH]c(-c4ccc(CO)cc4)nc23)C1 (stereo not drawn) [TIA04-063, N-Methyl-N-(1-methylpiperidin-3-ylmethyl)-8-(4-(hydroxymethyl)phenyl)-9H-purin-6-amine] | 53 ± 4 nM | >3 fold |
| CC(C)C1CCCN1c1ncnc2[nH]c(-c3ccc(CO)cc3)nc12 (stereo not drawn) [TIA04-065] | 5.4 ± 2.4 nM | >3 fold |
| CN(CC1CCCCO1)c1ncnc2[nH]c(-c3ccc(CO)cc3)nc12 (stereo not drawn) [TIA04-095, N-Methyl-N-(oxan-2-ylmethyl)-8-(4-(hydroxymethyl)phenyl)-9H-purin-6-amine] | 1.3 ± 0.2 nM | >3 fold |
| CN(Cc1ccccc1)c1ncnc2[nH]c(N3CCOCC3)nc12 [TIA04-105, N-Benzyl-N-methyl-8-morpholino-9H-purin-6-amine] | 16 ± 4 nM | >3 fold |
| CN(CC1CCCCC1)c1ncnc2[nH]c(-c3ccc(CN4CCOCC4)cc3)nc12 [TIA04-117, N-(Cyclohexylmethyl)-N-methyl-8-(4-(4-morpholinomethyl)phenyl)-9H-purin-6-amine] | 1.2 ± 0.2 nM | 1.2 fold |
| CN(CC1CCOCC1)c1ncnc2[nH]c(-c3ccc(CCO)cc3)nc12 [TIA05-014, N-Methyl-N-(oxan-4-ylmethyl)-8-(4-(2-hydroxyethyl)phenyl)-9H-purin-6-amine] | 0.2 nM | 1.7 fold |
| CN(CC1CCCCC1)c1ncnc2[nH]c(-c3ccc(CO)cc3)cc12 [TIA05-090, (4-(4-((Cyclohexylmethyl)(methyl)amino)-7H-pyrrolo[2,3-d]pyrimidin-6-yl)phenyl)methanol] | 0.3 nM | 1.0 fold |

The next lines start with results.

| IC50 (CSF1R) | Structure (SMILES) | MAPK (fold) [1] |
| --- | --- | --- |
| 8.8 ± 0.3 nM | CN(Cc1ccc(F)cc1)c1ncnc2[nH]c(-c3ccc(CO)cc3)nc12 [TIA02-134, N-Methyl-N-(4-fluorobenzyl)-8-(4-(hydroxymethyl)phenyl)-9H-purin-6-amine] | >3 fold |
| 1.5 ± 0.2 nM | Cc1cccc(CN(C)c2ncnc3[nH]c(-c4ccc(CO)cc4)nc23)c1 [TIA02-172, N-Methyl-N-(3-methylbenzyl)-8-(4-(hydroxymethyl)phenyl)-9H-purin-6-amine] | >5 fold |
| 4.2 ± 1.4 nM | COc1ccccc1CN(C)c1ncnc2[nH]c(-c3ccc(CO)cc3)nc12 [TIA03-106, N-(2-Methoxybenzyl)-N-methyl-8-(4-(hydroxymethyl)phenyl)-9H-purin-6-amine] | >3 fold |
| 0.3 ± 0.2 nM | CN(CC1CCCC1)c1ncnc2[nH]c(-c3ccc(CO)cc3)nc12 [TIA03-188, N-Methyl-N-(cyclopentylmethyl)-8-(4-(hydroxymethyl)phenyl)-9H-purin-6-amine] | 0.6 fold |
| 2.3 ± 0.3 nM | CN(Cc1ccccc1O)c1ncnc2[nH]c(-c3ccc(CO)cc3)nc12 [TIA04-009, N-Methyl-N-(2-hydroxybenzyl)-8-(4-(hydroxymethyl)phenyl)-9H-purin-6-amine] | >3 fold |
| 4.6 ± 0.6 nM | CN(CC1CCOC1)c1ncnc2[nH]c(-c3ccc(CO)cc3)nc12 (stereo not drawn) [TIA04-049, N-Methyl-N-(tetrahydrofuran-3-ylmethyl)-8-(4-(hydroxymethyl)phenyl)-9H-purin-6-amine] | >3 fold |
| 2.6 ± 0.3 nM | CN(CC1CCCO1)c1ncnc2[nH]c(-c3ccc(CO)cc3)nc12 (stereo not drawn) [TIA04-093, N-Methyl-N-(tetrahydrofuran-2-ylmethyl)-8-(4-(hydroxymethyl)phenyl)-9H-purin-6-amine] | >3 fold |
